Measured values taken from the CheMixHub ionic liquid set.

Assay: xn = mol fraction of the nth substance listed
Conditions: 100 kPa

CCCC[N+]1(C)CCCC1.N#C[C-](C#N)C#N + O
Conditions | electrical conductivity [S/m] | viscosity [mPa·s]
288.15 K, x2 = 0.0718 | 0.723 | 40.02
288.15 K, x2 = 0.1358 | 0.799 | 35.64
288.15 K, x2 = 0.1942 | 0.872 | 32.15
288.15 K, x2 = 0.2886 | 0.993 | 27.21
288.15 K, x2 = 0.3569 | 1.09 | 24.1
288.15 K, x2 = 0.431 | 1.21 | 21.17
288.15 K, x2 = 0.5238 | 1.38 | 17.74
288.15 K, x2 = 0.6162 | 1.55 | 15
288.15 K, x2 = 0.7143 | 1.8 | 12.05
288.15 K, x2 = 0.7708 | 1.9 | 10.98
293.15 K, x2 = 0.0718 | 0.882 | 32.78
293.15 K, x2 = 0.1358 | 0.957 | 29.3
293.15 K, x2 = 0.1942 | 1.04 | 26.51
293.15 K, x2 = 0.2886 | 1.18 | 22.51
293.15 K, x2 = 0.3569 | 1.3 | 20
293.15 K, x2 = 0.431 | 1.44 | 17.55
293.15 K, x2 = 0.5238 | 1.63 | 14.75
293.15 K, x2 = 0.6162 | 1.86 | 12.41
293.15 K, x2 = 0.7143 | 2.14 | 9.96
293.15 K, x2 = 0.7708 | 2.26 | 9.06
298.15 K, x2 = 0.0718 | 1.05 | 27.26
298.15 K, x2 = 0.1358 | 1.13 | 24.45
298.15 K, x2 = 0.1942 | 1.23 | 22.18
298.15 K, x2 = 0.2886 | 1.39 | 18.9
298.15 K, x2 = 0.3569 | 1.52 | 16.78
298.15 K, x2 = 0.431 | 1.69 | 14.76
298.15 K, x2 = 0.5238 | 1.92 | 12.43
298.15 K, x2 = 0.6162 | 2.18 | 10.42
298.15 K, x2 = 0.7143 | 2.52 | 8.36
298.15 K, x2 = 0.7708 | 2.67 | 7.58
303.15 K, x2 = 0.0718 | 1.22 | 22.88
303.15 K, x2 = 0.1358 | 1.32 | 20.68
303.15 K, x2 = 0.1942 | 1.43 | 18.8
303.15 K, x2 = 0.2886 | 1.61 | 16.06
303.15 K, x2 = 0.3569 | 1.76 | 14.28
303.15 K, x2 = 0.431 | 1.96 | 12.58
303.15 K, x2 = 0.5238 | 2.22 | 10.62
303.15 K, x2 = 0.6162 | 2.52 | 8.87
303.15 K, x2 = 0.7143 | 2.93 | 7.1
303.15 K, x2 = 0.7708 | 3.09 | 6.47
308.15 K, x2 = 0.0718 | 1.42 | 19.58
308.15 K, x2 = 0.1358 | 1.53 | 17.69
308.15 K, x2 = 0.1942 | 1.65 | 16.13
308.15 K, x2 = 0.2886 | 1.85 | 13.82
308.15 K, x2 = 0.3569 | 2.03 | 12.3
308.15 K, x2 = 0.431 | 2.22 | 10.84
308.15 K, x2 = 0.5238 | 2.56 | 9.18
308.15 K, x2 = 0.6162 | 2.9 | 7.65
308.15 K, x2 = 0.7143 | 3.35 | 6.11
308.15 K, x2 = 0.7708 | 3.54 | 5.56
313.15 K, x2 = 0.0718 | 1.62 | 16.87
313.15 K, x2 = 0.1358 | 1.74 | 15.26
313.15 K, x2 = 0.1942 | 1.87 | 13.96
313.15 K, x2 = 0.2886 | 2.11 | 12
313.15 K, x2 = 0.3569 | 2.3 | 10.7
313.15 K, x2 = 0.431 | 2.54 | 9.44
313.15 K, x2 = 0.5238 | 2.89 | 8.02
313.15 K, x2 = 0.6162 | 3.28 | 6.68
313.15 K, x2 = 0.7143 | 3.81 | 5.31
313.15 K, x2 = 0.7708 | 4.02 | 4.83
318.15 K, x2 = 0.0718 | 1.84 | 14.68
318.15 K, x2 = 0.1358 | 1.97 | 13.34
318.15 K, x2 = 0.1942 | 2.12 | 12.27
318.15 K, x2 = 0.2886 | 2.37 | 10.52
318.15 K, x2 = 0.3569 | 2.6 | 9.39
318.15 K, x2 = 0.431 | 2.87 | 8.29
318.15 K, x2 = 0.5238 | 3.25 | 7.06
318.15 K, x2 = 0.6162 | 3.7 | 5.83
318.15 K, x2 = 0.7143 | 4.28 | 4.66
318.15 K, x2 = 0.7708 | 4.53 | 4.24
323.15 K, x2 = 0.0718 | 2.07 | 12.88
323.15 K, x2 = 0.1358 | 2.22 | 11.74
323.15 K, x2 = 0.1942 | 2.37 | 10.81
323.15 K, x2 = 0.2886 | 2.66 | 9.3
323.15 K, x2 = 0.3569 | 2.9 | 8.31
323.15 K, x2 = 0.431 | 3.19 | 7.34
323.15 K, x2 = 0.5238 | 3.63 | 6.28
323.15 K, x2 = 0.6162 | 4.12 | 5.16
323.15 K, x2 = 0.7143 | 4.78 | 4.13
323.15 K, x2 = 0.7708 | 5.06 | 3.75
328.15 K, x2 = 0.0718 | 2.31 | 11.39
328.15 K, x2 = 0.1358 | 2.48 | 10.41
328.15 K, x2 = 0.1942 | 2.65 | 9.6
328.15 K, x2 = 0.2886 | 2.96 | 8.28
328.15 K, x2 = 0.3569 | 3.21 | 7.41
328.15 K, x2 = 0.431 | 3.54 | 6.56
328.15 K, x2 = 0.5238 | 4.02 | 5.63
328.15 K, x2 = 0.6162 | 4.57 | 4.61
328.15 K, x2 = 0.7143 | 5.29 | 3.68
328.15 K, x2 = 0.7708 | 5.61 | 3.35
333.15 K, x2 = 0.0718 | 2.58 | 10.14
333.15 K, x2 = 0.1358 | 2.75 | 9.29
333.15 K, x2 = 0.1942 | 2.93 | 8.58
333.15 K, x2 = 0.2886 | 3.27 | 7.42
333.15 K, x2 = 0.3569 | 3.54 | 6.65
333.15 K, x2 = 0.431 | 3.91 | 5.89
333.15 K, x2 = 0.5238 | 4.43 | 5.07
333.15 K, x2 = 0.6162 | 5.01 | 4.15
333.15 K, x2 = 0.7143 | 5.83 | 3.3
333.15 K, x2 = 0.7708 | 6.17 | 3.01

CC[n+]1ccn(C)c1.N#C[S-] + O
Conditions | viscosity [mPa·s]
288.15 K, x2 = 0.9443 | 1.96
293.15 K, x2 = 0.1006 | 22.55
293.15 K, x2 = 0.7981 | 4.08
293.15 K, x2 = 0.9105 | 2.27
303.15 K, x2 = 0.1948 | 13.75
303.15 K, x2 = 0.4011 | 9.55
303.15 K, x2 = 0.6887 | 4.72
308.15 K, x2 = 0 | 16.39
308.15 K, x2 = 0.1948 | 12.02
308.15 K, x2 = 0.6043 | 5.31
308.15 K, x2 = 0.6887 | 4.19
313.15 K, x2 = 0.1006 | 12.15
313.15 K, x2 = 0.9105 | 1.44
313.15 K, x2 = 0.9506 | 1.07
318.15 K, x2 = 0 | 12.43
318.15 K, x2 = 0.1948 | 9.38
